# Results from patent US8609610B2, “Inhibitors of the trypsin-like site of the proteasome and methods of use thereof” (Trustees of Dartmouth College, priority 2011, dated 2013).
# Like-named read-outs stand apart in the source and are kept apart here.
# Tests used:
# [1] = molecular target: T1, trypsin-like sites (β2) of proteasome in MM cells (Homo sapiens, UniProt Q99436); test: PROTEASOMEGLO assay of proteasome inhibition in MM cells; assay type: cell-based; conditions: 6 hours, >>30 no inhibition at 30 μM, >30 inhibition 10-50% at 30 μM, read-out: IC50 for sites: Tr-L
# T1 construct: endogenous in cells; host or cells: NCI-H929, RPMI-8226 and other MM cell lines
# T1 sequence (Q99436 44-277): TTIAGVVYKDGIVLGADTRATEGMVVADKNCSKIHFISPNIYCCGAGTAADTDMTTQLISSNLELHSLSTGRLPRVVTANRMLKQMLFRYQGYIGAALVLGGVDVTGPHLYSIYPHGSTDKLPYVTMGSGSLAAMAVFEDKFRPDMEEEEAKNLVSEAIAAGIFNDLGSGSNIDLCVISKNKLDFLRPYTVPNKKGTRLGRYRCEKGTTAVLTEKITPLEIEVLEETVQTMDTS
# [2] = system: trypsin-like sites (β2) of proteasome in MM cells; test: as above; assay type: cell-based
# β5 proteasome subunit = molecular target: T2, β5 proteasome subunit (Homo sapiens, UniProt P20618+P28074); test: Competition assay in HEK-293T cell lysate with MV151; assay type: biochemical; conditions: HEK-293T lysate, 50 μM
# T2 construct: Whole cell lysates of HEK-293T or EL-4 cells were made by sonication; endogenous in cells; host or cells: HEK-293T
# Summary of the method: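 HEK-293T (13.5 μg protein, human β5) or EL-4 (9 μg protein, mouse β2i) lysates were treated with inhibitors for 1 h at 37 °C, then labelled with 0.5 μM MV151 for 1 h. Residual subunit activity was read as in-gel fluorescence after SDS-PAGE, with loss of the band indicating competition.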
# [3] = molecular target: chymotrypsin-like activity of yeast 20S proteasome (Saccharomyces cerevisiae, UniProt P23724+P30656); test: Yeast 20S core particle activity, substrate Suc-LLVY-amc; conditions: read-out: IC50 for yeast 20S proteasome: Chym-L
# Description: Proteasomes were pre-incubated with inhibitors for minutes, and inhibitors were present during activity assays. Fluorescence was measured at λexc=360, λem=460 nm using a Varian Cary Eclipse Fluorescence Spectrophotometer (Agilent Technologies).
# [4] = molecular target: caspase-like site of 26S proteasomes (Oryctolagus cuniculus, UniProt A0A5F9DQW2); test: Inhibition of purified 26S proteasomes, substrate Ac-nLPnLD-amc; assay type: biochemical, rabbit; conditions: >>30 no inhibition at 30 μM, >30 inhibition between 10 and 50% at 30 μM, read-out: IC50 for sites in 26S proteasomes: Casp-L
# Chain of caspase-like site of 26S proteasomes (A0A5F9DQW2 1-212): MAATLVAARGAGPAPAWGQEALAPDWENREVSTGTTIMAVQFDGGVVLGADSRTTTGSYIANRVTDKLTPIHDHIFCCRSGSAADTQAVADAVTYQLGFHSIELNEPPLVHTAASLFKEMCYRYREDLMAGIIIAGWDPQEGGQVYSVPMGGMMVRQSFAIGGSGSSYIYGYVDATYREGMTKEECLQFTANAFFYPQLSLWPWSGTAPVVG
# β2i proteasome subunit = molecular target: T3, β2i proteasome subunit (Mus musculus, UniProt O35955+Q9R1P1); test: Competition assay in EL-4 cell lysate with MV151; assay type: biochemical; conditions: EL-4 lysate
# T3 construct: Whole cell lysates of HEK-293T or EL-4 cells were made by sonication; endogenous in cells; host or cells: EL-4
# Description: Whole cell lysates of HEK-293T or EL-4 cells were made by sonication in 3 volumes of lysis buffer containing 50 mM Tris pH 7.5, 1 mM DTT, 5 mM MgCl2, 250 mM sucrose, 2 mM ATP, 0.025% digitonin. Protein concentration was determined by the Bradford assay. Cell lysates (13.5 μg total protein for HEK lysates and 9 μg total protein for EL-4 lysates) were exposed to the inhibitors for 1 hour at 37° C. prior to incubation with MV151 (0.5 μM) or BODIPY-TMR-epoxomicin (0.5 μM) for an additional 1 hour at 37° C. Reaction mixtures were boiled with Laemmli's buffer containing (3-mercaptoethanol for 5 minutes before being resolved by 12.5% SDS-PAGE. In-gel detection of residual proteasome activity was performed in the wet gel slabs directly on the TYPHOON Variable Mode Imager (Amersham Biosciences) using the Cy3/Tamra settings (λex 532 nm, λem 560 nm) to detect MV151, BODIPY-TMR-epoxomicin and Cy2/Fam settings (λex 488 nm, λem 520 nm) to detect compounds 39 and 59.
# The inhibition potential of the inhibitors for each of the catalytically active subunits was assessed in competition assays employing extracts of human embryonic kidney cells (HEK-293T) and mouse lymphoma cells (EL-4) in combination with the fluorescent broad spectrum proteasome probe MV151 (Verdoes, et al. (2006) Chem. Biol. 13:1217-1226). […]
# β2 proteasome subunit = molecular target: T4, β2 proteasome subunit (Mus musculus, UniProt P70195+Q9R1P1); test: Competition assay in EL-4 cell lysate with MV151; assay type: biochemical; conditions: 0.5 μM
# T4 construct: Whole cell lysates of HEK-293T or EL-4 cells were made by sonication; endogenous in cells; host or cells: EL-4
# Description: Competitive inhibition of a proteasome active site is reflected by the disappearance of the corresponding band on a gel.
# [5] = molecular target: T5, caspase-like sites (β1) of proteasome in MM cells (Homo sapiens, UniProt P28072+Q99436); test: PROTEASOMEGLO assay of proteasome inhibition in MM cells; assay type: cell-based; conditions: read-out: IC50 for sites: Casp-L, 6 hours, >>30 no inhibition at 30 μM, >30 inhibition 10-50% at 30 μM
# T5 sequence (P28072 35-239): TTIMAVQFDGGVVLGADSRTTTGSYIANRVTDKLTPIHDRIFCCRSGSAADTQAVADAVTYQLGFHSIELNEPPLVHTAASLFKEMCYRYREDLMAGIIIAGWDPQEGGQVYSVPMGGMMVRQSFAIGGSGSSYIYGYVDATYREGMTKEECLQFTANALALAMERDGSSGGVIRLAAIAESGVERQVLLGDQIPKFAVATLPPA
# T5 sequence (Q99436 44-277): T1 sequence (Q99436 44-277)
# [6] = molecular target: β5 (chymotrypsin-like site) of proteasome in HEK-293T cells (Homo sapiens, UniProt P20618+P28074); test: Competition assay in living HEK-293T cells with activity-based probe; assay type: cell-based; conditions: concentrations up to 50 μM
# Description: (§1) Proteasome inhibition in MM cells was measured with luminogenic substrates using PROTEASOMEGLO assay (Promega). […] An aliquot of culture was pelleted and medium was removed and replaced with PBS. The resulting cell suspension was mixed with luminogenic substrates in the manufacturer-provided lysis/assay buffer. After 3 minutes mixing on an orbital shaker, the plate was incubated in the dark for additional 17 minutes, followed by the measurements of the luminescence, performed in triplicate for each substrate/data point. Data were analyzed as for purified proteasomes. […] Cells (1×10^6 per well of a 6-well plate) were incubated with the inhibitors for 4 hours at 37° C. and this was followed by a 2 hour incubation with 5 μM BODIPY-TMR-epoxomicin. Subsequently, the medium was removed and the cells were washed with PBS and harvested. […] The supernatant was collected and the protein concentration was determined by the Bradford assay, and used to normalize gel loading. The samples were analysed by SDS-PAGE and fluorescent densitometry as described for competition experiment in cell lysates. IC50 values were calculated from three independent experiments using […] PRISM software.
# (§2) Human embryonic kidney cells (some 1×10^6) were cultured in 6-well plates in DMEM containing 10% fetal calf serum, 10 units/mL penicillin and 10 μg/mL streptomycin in a 7% CO2 humidified incubator at 37° C. overnight. Part of the medium was taken and to this was added the appropriate inhibitor in DMSO (1 μL of a 1,000× stock solution), after which the medium was added to the cells. The cells were incubated with the inhibitors for 4 hours at 37° C. and this was followed by addition of MV151 (1 μL of a 5 mM stock solution in DMSO) and incubation for 2 hours at 37° C. Next, the medium was removed and the cells were washed with PBS and harvested. […] The supernatant was collected and the protein concentration was determined by the Bradford assay. All samples were normalized to the same protein concentration with lysis buffer.
# [7] = molecular target: β2 (trypsin-like site) of proteasome in HEK-293T cells (Homo sapiens, UniProt P49720+Q99436); test: as above; assay type: cell-based; conditions: 5 μM
# Description: as §1, §2
# Cathepsin B, H, L, S = test: Cathepsin activity with pan-cathepsin substrate Z-FR-amc; assay type: cell-based; conditions: NCI-H929 cells, 6 hour treatment
# Summary of the method: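 Extracts of cytosol-less cells were used throughout. Cathepsins B, H, L and S were assayed with the fluorogenic Z-FR-amc substrate at pH 6.0. Cathepsin D was measured with the SENSOLYTE 520 fluorometric kit.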
# [8] = system: myeloma cells U266 and AMO-1; test: Cytotoxicity in combination with β5-selective proteasome inhibitors; assay type: cell-based; conditions: PR671A with bortezomib or PR523
# RPMI-8226 cells = test: ALAMAR BLUE cell viability assay; assay type: cell-based; conditions: RPMI-8226 cells
# Summary of the method: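 Myeloma lines were grown in RPMI-1640 with 10% FBS; viability of myeloma cells was read by ALAMAR BLUE mitochondrial dye conversion. PBMNC viability used CELL TITER-GLO ATP luminescence. Caspase-3/7 activity in NCI-H929 and MM1.R was measured with the APO-ONE homogeneous assay.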
# [9] = system: bortezomib-adapted cell lines AMO-1a and HL-60a; test: Combination in bortezomib-adapted cell lines; assay type: cell-based; conditions: in combination with bortezomib or PR523
# [10] = system: bortezomib-refractory primary myeloma cells from patients; test: Combination in bortezomib-refractory primary myeloma cells; assay type: cell-based; conditions: in combination with bortezomib or PR523; primary cells from three patients
Compound,IC50 ([1]; NCI-H929 cells),IC50 ([1]; RPMI-8226 cells),difference in IC50 for trypsin-like activity between NCI-H929 and RPMI-8226 [2],inhibition of β5 in cell lysate (β5 proteasome subunit),IC50 [3],IC50 [4],concentration at which inhibition of β2i starts (β2i proteasome subunit),inhibition of β2 in EL-4 lysate (β2 proteasome subunit),IC50 ([5]; NCI-H929 cells),IC50 ([5]; RPMI-8226 cells),β5 in living cells [6],β2 band in living cells [7],"inhibition of cathepsins (Z-FR-amc) (Cathepsin B, H, L, S)",time to steady-state proteasome inhibition ([2]; RPMI-8226 cells),cytotoxicity of combination [8],inhibition of β2 activity in living cells ([7]; 4 hours),sensitization to bortezomib (RPMI-8226 cells),sensitization to carfilzomib (RPMI-8226 cells),effect on bortezomib resistance [9],effect on bortezomib resistance [10]
"Cc1c(O)cccc1C(=O)N[C@H](C(=O)N[C@@H](CO)C(=O)N[C@H](/C=C/S(C)(=O)=O)Cc1ccc(CN)cc1)C(C)C [Compound 48, HMB-Val-Ser-Phe (4-CH2NH2)-VS]",0.2 µM,3.2 µM,greater than ten-fold,Only a part of the β5 activity was inhibited,19.3 µM,11 µM,5 µM,almost completely blocked,> 30 µM,> 30 µM,not affected at all,almost disappeared,did not cause any inhibition of cathepsins,,,,,,,
"CC(C)C[C@H](NC(=O)[C@H](Cc1ccccc1)N=[N+]=[N-])C(=O)N[C@@H](CC(C)C)C(=O)N[C@H](/C=C/S(C)(=O)=O)Cc1ccc(CN)cc1 [Compound 4a, N3Phe-Leu-Leu-Phe (4-CH2NH2) VS]",,,three-fold,completely blocked β5,,,,,,,,,Partial inhibition of cathepsins,1 h,synergistic cytotoxicity,inhibiting (almost) all β2 activity,sensitized RPMI-8226 cells to bortezomib,slightly more potent sensitizer to carfilzomib than was NC-022,overcomes bortezomib resistance,overcomes bortezomib resistance
